Where a name gives a salt, the structure may show the parent alone.
Test: RP, Waters ACQUITY UPLC BEH C18, 38 °C, 0.24 mL/min; A: water + 0.1% formic acid, pH 3; B: acetonitrile + 0.1% formic acid, pH 3; gradient (min/%B) 0/0 0.25/0 0.4/9 0.8/17 1.9/100 2.1/100 2.11/0 3/0
Details: stereoisomer not certain

SMILES | LC retention time [min]
N[C@@H](CCSSCC[C@H](N)C(=O)O)C(=O)O (racemic) [DL-homocystine] | 0.23
N[C@@H](Cc1ccc(O)c(Cl)c1)C(=O)O [3-Chloro-L-tyrosine hydrochloride] | 1.1
CN(C)C(=N)N=C(N)N [1,1-Dimethylbiguanide hydrochloride] | 0.21
NCCCCNCCCN [Spermidine] | 0.14
OCC1OC(Oc2cc3c(OC4OC(CO)C(O)C(O)C4O)cc(O)cc3[o+]c2-c2ccc(O)cc2)C(O)C(O)C1O (centres undefined) [Pelargonin chloride] | 1.14
O=C1c2c(O)cc(O)cc2OC(c2ccc(O)c(O)c2)C1O (racemic) [(+-)-Taxifolin] | 1.45
NCCCCCN [Cadaverine] | 0.14
CC(C)(COP(=O)(O)OP(=O)(O)OCC1OC(n2cnc3c(N)ncnc32)C(O)C1O)C(O)C(=O)NCCC(=O)NCCS (centres undefined) [3'-Dephosphocoenzyme A] | 1.12
N[C@H]1C(O)O[C@H](CO)[C@@H](O)[C@@H]1O (stereo partly drawn) [D-(+)-Glucosamine hydrochloride] | 0.15
CC(=O)OC[C@H](N)C(=O)O [O-acetyl-L-serine hydrochloride] | 0.19
CS(=O)C=CCCN=C=S (centres undefined) | 1.44
O=C(O)CC(C(=O)O)C(O)C(=O)O (racemic) [DL-Isocitric acid trisodium salt] | 0.24
C[N+](C)(C)CCO [Choline chloride] | 0.17
COc1cc(-c2[o+]c3cc(O)cc(O)c3cc2OC2OCC(O)C(O)C2O)ccc1O (stereo not drawn) [Peonidin-3-O-alpha-arabinopyranoside] | 1.3
OCC1OC(OC2C(CO)OC(O)C(O)C2O)C(O)C(O)C1O [D-(+)- Maltose monohydrate] | 0.17
COc1cc(CNC(=O)CCCCC=CC(C)C)ccc1O [Capsaicin] | 1.93
O=c1cc(-c2ccc(O)c(OC3OC(CO)C(O)C(O)C3O)c2)oc2cc(OC3OC(CO)C(O)C(O)C3O)cc(O)c12 (centres undefined) [luteolin-3',7-di-O-glucoside] | 1.35
CC(C)(CO)C(O)C(=O)NCCC(=O)O (stereo not drawn) [Calcium (+)-pantothenate] | 1.11
CCCCCCCCCCCCCCCC(O)C(CO)NC(=O)CCCCCCC [N-Octanoylsphinganine,D-erythro] | 0.56
CC(O)(CC(=O)O)C(=O)O (single isomer, unassigned; (-)) [(-)-Citramalic acid] | 0.51
OCC1OC(Oc2cc3c(O)cc(O)cc3[o+]c2-c2ccc(O)cc2)C(O)C(O)C1O (centres undefined) [Callistephin Chloride] | 1.25

SMILES | LC retention time [min]
O=C(CCc1ccccc1)c1c(O)cc(O)cc1OC1OC(CO)C(O)C(O)C1O (centres undefined) [4-deoxyphloridzin] | 1.5
CCCCCCN [Hexylamine] | 1.21
O=c1ccn(C2OC(CO)C(O)C2O)c(=O)[nH]1 (centres undefined) [Uridine] | 0.66
Nc1ccn(C2OC(COP(=O)(O)O)C(O)C2O)c(=O)n1 (centres undefined) [Cytidine-5'-monophosphate monohydrate] | 0.24
O=c1ccn(C2CC(O)C(COP(=O)(O)O)O2)c(=O)[nH]1 (centres undefined) [2'-Deoxyuridine-5'-monophosphate disodium salt] | 0.4
CC(C)C(O)(CC(=O)O)C(=O)O (centres undefined) [2-Isopropylmalic acid] | 1.21
OCC1OC(OC2C(O)C(O)COC2(O)CO)C(O)C(O)C1O (centres undefined) | 0.18
Nc1ccccc1 [Aniline] | 0.42
CC(=O)NCCCNCCCCNCCCN [N1-Acetylspermine Trihydrochloride] | 0.14
CC(O)C(=O)SCC(NC(=O)CCC(N)C(=O)O)C(=O)NCC(=O)O (centres undefined) [S-Lactoylglutathione] | 1.06
CC(C)[C@@H](O)C(=O)O [D-alpha-Hydroxyisovaleric acid] | 1.14
CC[C@H](C)[C@H](N)CC(=O)O [L-beta-Homoisoleucine hydrochloride] | 1.1
NC(=O)NC(CC(=O)O)C(=O)O (racemic) [Carbamoyl-DL-aspartic Acid] | 0.12
COc1cc(C=CC(=O)O)cc(OC)c1O [Sinapic acid] | 1.44
Nc1ccn(C2OC(CO)C(OP(=O)(O)O)C2O)c(=O)n1 (centres undefined) [Cytidine-3'-monophosphate] | 0.36
Nc1nc2nc[nH]c2c(=O)[nH]1 [Guanine] | 0.32
COc1ccc(-c2coc3cc(OC4OC(CO)C(O)C(O)C4O)cc(O)c3c2=O)cc1 (centres undefined) [Sissotrin] | 1.61
C[n+]1cccc(C(N)=O)c1 [1-Methylnicotinamide chloride] | 0.18
NCCCNCCCCNCCCN [Spermine] | 0.14
CNCC(O)c1cccc(O)c1 [(R)-(-)-Phenylephrine hydrochloride] | 0.59
O=C(O)Cc1cc(O)ccc1O [Homogentisic acid] | 1.1

SMILES | LC retention time [min]
O=C(O)CNC(=O)c1ccccc1 [Hippuric Acid] | 1.29
NC1(C(=O)O)CCCC1 [1-Amino-1-cyclopentanecarboxylic acid] | 0.32
Nc1ncnc2c1ncn2C1CC(O)C(CO)O1 (centres undefined) [2'-Deoxyadenosine monohydrate] | 1.07
OCC1OC(Oc2cc(O)cc3[o+]c(-c4ccc(O)c(O)c4)c(OC4OC(CO)C(O)C(O)C4OC4OCC(O)C(O)C4O)cc23)C(O)C(O)C1O (centres undefined) | 1.12
Nc1ccccc1C(=O)O [Anthranilic acid] | 1.39
N[C@@H](CCO)C(=O)O [L-Homoserine] | 0.17
N[C@@H](Cc1c[nH]c2ccccc12)C(=O)O [L-Tryptophane] | 1.16
CC(O)(CC(=O)O)CC(=O)O [3-Hydroxy-3-methylglutarate] | 0.68
NCC(=O)NCC(=O)O [Gly-Gly] | 0.16
COc1ccc(C2CC(=O)c3c(O)cc(OC4OC(COC5OC(C)C(O)C(O)C5O)C(O)C(O)C4O)cc3O2)cc1O (centres undefined) [Hesperidin] | 1.45
O=C1CC(c2ccc(O)cc2)Oc2cc(O)cc(O)c21 (centres undefined) [naringenin] | 1.67
O=c1c(-c2ccc(O)cc2)coc2cc(O)ccc12 [Daidzein] | 1.57
C=CC(C)(O)CCC=C(C)CCC=C(C)C (stereo not drawn) [cis-Nerolidol] | 1.81
CN1CCCC1c1cccnc1 (racemic) [(-)-Nicotine ( solution 1.0 mg/mL+/-5% in methanol)] | 0.47
NC(CSS(=O)(=O)O)C(=O)O (centres undefined) [S-Sulfocysteine] | 0.17
OCC1OC(OC2C(O)C(O)C(O)C(O)C2O)C(O)C(O)C1O (centres undefined) [Galactinol Dihydrate] | 0.16
CC(C)=CCNc1ncnc2nc[nH]c12 [6-(gamma,gamma-Dimethylallylamino)purine] | 1.32
NCC(O)c1ccc(O)c(O)c1 (single isomer, unassigned; (-)) [(-)-Norepinephrine] | 0.19
CC(C)c1cccc(O)c(=O)c1 [Hinokitiol] | 1.49
O=C(O)c1ccccc1O [Salicylic Acid] | 1.55
CCCCc1ccc(C(=O)O)nc1 [Fusaric acid] | 1.37

SMILES | LC retention time [min]
Cn1c(=O)c2c(ncn2C)n(C)c1=O [Caffeine,Anhydrous] | 1.24
CC(=O)Nc1ccc(O)cc1 [Acetaminophen] | 1.15
C[N+](C)(C)[O-] [Trimethylamine N-oxide dihydrate] | 0.18
CSCC[C@H](N)CC(=O)O [L-beta-homomethionine-HCl] | 0.66
C=CCC(=NOS(=O)(=O)O)SC1OC(CO)C(O)C(O)C1O (centres undefined) [sinigrin] | 0.38
O=c1cc(-c2ccc(O)cc2)oc2c(C3OC(CO)C(O)C(O)C3O)c(O)cc(O)c12 (centres undefined) [Vitexin] | 1.39
COc1ccccc1C=CC(=O)O [2-Methoxycinnamic acid] | 1.68
CC1OC(OC2C(Oc3cc(O)c4c(=O)c(O)c(-c5ccc(O)cc5)oc4c3)OC(CO)C(O)C2O)C(O)C(O)C1O (centres undefined) [kaempferol-7-O-neohesperidoside] | 1.44
NC(CO)CC(=O)O [L-beta-homoserine [(R)-3-Amino-4-hydroxy-butyric acid (+)]] | 0.16
NCCc1c[nH]c2ccc(O)cc12 [Serotonin hydrochloride] | 1.08
O=c1c(OC2OCC(O)C(O)C2O)c(-c2ccc(O)c(O)c2)oc2cc(O)cc(O)c12 [Quercetin-3-D-xyloside] | 1.43
Cc1cc2nc3c(=O)[nH]c(=O)nc-3n(CC(O)C(O)C(O)COP(=O)(O)O)c2cc1C (centres undefined) | 1.19
Nc1ccn(C2CC(O)C(CO)O2)c(=O)n1 (centres undefined) [2'-Deoxycytidine] | 0.45
NCCC[C@H](N)C(=O)O [L-Ornithine monohydrochloride] | 0.14
O=c1[nH]cnc2c1ncn2C1CC(O)C(COP(=O)(O)O)O1 (centres undefined) [2'-Deoxyinosine-5'-monophosphate sodium salt] | 0.7
Nc1ncnc2c1ncn2C1CC(O)C(COP(=O)(O)O)O1 (centres undefined) [2'-Deoxyadenosine-5'-monophosphate] | 0.62
Nc1ccn(C2OC(CO)C(O)C2O)c(=O)n1 (centres undefined) [Cytidine,cell culture tested] | 0.34
OCC1OC(OC2C(CO)OC(OC3C(CO)OC(O)C(O)C3O)C(O)C2O)C(O)C(O)C1O (centres undefined) [Maltotriose hydrate] | 0.22
OC[C@@H](O)[C@H](O)CO (racemic) [DL-Threitol] | 0.17
NC(=O)c1ncn(C2OC(COP(=O)(O)O)C(O)C2O)c1N (centres undefined) | 0.32
N[C@@H](Cc1ccc(O)cc1)C(=O)O [L-Tyrosine] | 0.61

Reference: the RepoRT retention time repository (doi:10.1093/pcp/pcn183)
